The text below walks through data of patent US20260250290A1 (BRISTOL-MYERS SQUIBB COMPANY, priority 2023, published 2026).

The target in the experiment is T1, SGK1 (Homo sapiens, UniProt O00141).
T1 sequence (O00141 1-431): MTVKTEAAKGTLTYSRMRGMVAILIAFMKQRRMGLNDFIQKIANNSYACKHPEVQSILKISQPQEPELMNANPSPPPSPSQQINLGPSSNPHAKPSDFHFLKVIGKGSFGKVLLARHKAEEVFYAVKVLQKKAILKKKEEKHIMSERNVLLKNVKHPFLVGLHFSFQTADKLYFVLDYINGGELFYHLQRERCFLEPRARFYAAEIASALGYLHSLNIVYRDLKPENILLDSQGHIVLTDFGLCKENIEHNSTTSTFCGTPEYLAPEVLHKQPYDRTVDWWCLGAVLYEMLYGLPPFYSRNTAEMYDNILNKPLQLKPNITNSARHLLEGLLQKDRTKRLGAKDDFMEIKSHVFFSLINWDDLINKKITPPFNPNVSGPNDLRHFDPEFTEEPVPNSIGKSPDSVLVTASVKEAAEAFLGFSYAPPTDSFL
Description: SGK1 inhibition Assay B (Echo mass spectrometry of phosphorylated peptide product). It counts as biochemical. The conditions noted are these: 60 min at room temperature.

Each structure is given as a SMILES string. Counter-ions that a name gives are not always drawn.

The IC50 is the concentration that gives 50% inhibition. `COC(=O)N1CC=C(c2cc(N3CCC[C@@H](NC(=O)c4sc(C)nc4OC4CCNCC4)C3)c3c(N)ncnn23)C1` [Example 359, Methyl (R)-3-(4-amino-5-(3-(2-methyl-4-(piperidin-4-yloxy)thiazole-5-carboxamido)piperidin-1-yl)pyrrolo[2,1-f][1,2,4]triazin-7-yl)-2.5-dihydro-1H-pyrrole-1-carboxylate] gave an IC50 of 3 nM. On to `COC(=O)N1CC=C(c2cc(N3CCC[C@@H](NC(=O)c4sc(C)nc4OC4CCN(C)CC4)C3)c3c(N)ncnn23)C1` [Example 360, Methyl (R)-3-(4-amino-5-(3-(2-methyl-4-((1-methylpiperidin-4-yl)oxy)thiazole-5-carboxamido)piperidin-1-yl)pyrrolo[2,1-f][1,2,4]triazin-7-yl)-2,5-dihydro-1H-pyrrole-1-carboxylate], for which the IC50 was found to be 14 nM. In the case of `COC(=O)N1CC=C(c2cc(N3CCC[C@@H](NC(=O)c4sc(C)nc4OC4CCN(C(C)C)CC4)C3)c3c(N)ncnn23)C1` [Example 361, Methyl (R)-3-(4-amino-5-(3-(4-((1-isopropylpiperidin-4-yl)oxy)-2-methylthiazole-5-carboxamido)piperidin-1-yl)pyrrolo[2,1-f][1,2,4]triazin-7-yl)-2,5-dihydro-1H-pyrrole-1-carboxylate] it was 26 nM; in that of `CC(=O)N1CC=C(c2cc(N3CCC[C@@H](NC(=O)c4sc(C#N)cc4O[C@@H]4C[C@H]5CC[C@@H](C4)N5C)C3)c3c(N)ncnn23)C1` [Example 753], 12 nM. Turning to `COC1=C(C(=O)N[C@@H]2CCCN(c3cc(C4=CCN(C(C)=O)C4)n4ncnc(N)c34)C2)CN(C)C1=O` [Example 754, (R)-N-(1-(7-(1-acetyl-2,5-dihydro-1H-pyrrol-3-yl)-4-aminopyrrolo[2,1-f][1,2,4]triazin-5-yl)piperidin-3-yl)-4-methoxy-1-methyl-5-oxo-2,5-dihydro-1H-pyrrole-3-carboxamide], the midpoint of inhibition, the IC50, lay at 163 nM. Molecule `CCOC1=C(C(=O)N[C@@H]2CCCN(c3cc(C4=CCN(C(C)=O)C4)n4ncnc(N)c34)C2)CN(c2ccc(OC)cc2)C1=O` [Example 755, (R)-N-(1-(7-(1-acetyl-2,5-dihydro-1H-pyrrol-3-yl)-4-aminopyrrolo[2,1-f][1,2,4]triazin-5-yl)piperidin-3-yl)-4-ethoxy-1-(4-methoxyphenyl)-5-oxo-2,5-dihydro-1H-pyrrole-3-carboxamide] had a concentration for half-maximal inhibition (IC50) of 21 nM.

For `CCOC1=C(C(=O)N[C@@H]2CCCN(c3cc(C4=CCN(C(C)=O)C4)n4ncnc(N)c34)C2)CN(c2ccc(F)cc2F)C1=O` [Example 756], the half-maximal inhibitory concentration (IC50) stood at 52 nM. This IC50 lies about 2.5-fold higher than the previous one. The molecule `CCOC1=C(C(=O)N[C@@H]2CCCN(c3cc(C4=CCN(C(C)=O)C4)n4ncnc(N)c34)C2)CN(C2(C(F)(F)F)CC2)C1=O` [Example 757, (R)-N-(1-(7-(1-acetyl-2,5-dihydro-1H-pyrrol-3-yl)-4-aminopyrrolo[2,1-f][1,2,4]triazin-5-yl)piperidin-3-yl)-4-ethoxy-5-oxo-1-(1-(trifluoromethyl)cyclopro-pyl)-2,5-dihydro-1H-pyrrole-3-carboxamide] displayed an IC50 of 89 nM. This IC50 is about 1.7-fold higher than that of the molecule before. With `CCOC1=C(C(=O)N[C@@H]2CCCN(c3cc(C4=CCN(C(C)=O)C4)n4ncnc(N)c34)C2)CN(c2ccccc2)C1=O` [Example 758, (R)-N-(1-(7-(1-acetyl-2,5-dihydro-1H-pyrrol-3-yl)-4-aminopyrrolo[2,1-f][1,2,4]triazin-5-yl)piperidin-3-yl)-4-ethoxy-5-oxo-1-phenyl-2,5-dihydro-1H-pyrrole-3-carboxamide, TFA salt], 143 nM corresponded to half-maximal inhibition (IC50). Against the preceding molecule, the IC50 is about 1.6-fold higher. `CCOC1=C(C(=O)N[C@@H]2CCCN(c3cc(C4=CCN(C(C)=O)C4)n4ncnc(N)c34)C2)CN(CC(F)(F)F)C1=O` [Example 759, (R)-N-(1-(7-(1-acetyl-2,5-dihydro-1H-pyrrol-3-yl)-4-aminopyrrolo[2,1-f][1,2,4]triazin-5-yl)piperidin-3-yl)-4-ethoxy-5-oxo-1-(2,2,2-trifluoroethyl)-2,5-dihydro-1H-pyrrole-3-carboxamide] came in with an IC50 of 887 nM. In the case of `CN1CCN(c2cccc(C(=O)N[C@@H]3CCCN(c4cc(-c5ccc6[nH]ncc6c5)n5ncnc(N)c45)C3)n2)CC1` [Example 806, (R)-N-(1-(4-amino-7-(1H-indazol-5-yl)pyrrolo[2,1-f][1,2,4]triazin-5-yl)piperidin-3-yl)-6-(4-methylpiperazin-1-yl)picolinamide] it was 134 nM; in that of `CN1CCN(c2cccc(C(=O)N[C@@H]3CCCN(c4cc(-c5cnn(C(F)F)c5)n5ncnc(N)c45)C3)n2)CC1` [Example 807, (R)-N-(1-(4-amino-7-(1-(difluoromethyl)-1H-pyrazol-4-yl)pyrrolo[2,1-f][1,2,4]triazin-5-yl)piperidin-3-yl)-6-(4-methylpiperazin-1-yl)picolinamide, TFA salt], 41 nM; in that of `CN1CCN(c2cccc(C(=O)N[C@@H]3CCCN(c4cc(-c5ccc(-n6cccn6)cc5)n5ncnc(N)c45)C3)n2)CC1` [Example 808, (R)-N-(1-(7-(4-(1H-pyrazol-1-yl)phenyl)-4-aminopyrrolo[2,1-f][1,2,4]triazin-5-yl)piperidin-3-yl)-6-(4-methylpiperazin-1-yl)picolinamide], 34 nM. `CC(=O)c1ccc(-c2cc(N3CCC[C@@H](NC(=O)c4cccc(N5CCN(C)CC5)n4)C3)c3c(N)ncnn23)cn1` [Example 809, (R)-N-(1-(7-(6-acetylpyridin-3-yl)-4-aminopyrrolo[2,1-f][1,2,4]triazin-5-yl)piperidin-3-yl)-6-(4-methylpiperazin-1-yl)picolinamide] had an IC50 of 80 nM. Compared with the last molecule, the IC50 is about 2.4-fold higher. In turn, `CN1CCN(c2cccc(C(=O)N[C@@H]3CCCN(c4cc(-c5ccc(F)c(F)c5)n5ncnc(N)c45)C3)n2)CC1` [Example 811, (R)-N-(1-(4-amino-7-(3,4-difluorophenyl)pyrrolo[2,1-f][1,2,4]triazin-5-yl)piperidin-3-yl)-6-(4-methylpiperazin-1-yl)picolinamide] came in with an IC50 of 45 nM. Against the preceding molecule, the IC50 is about 1.8-fold lower.

Regarding `CC(C)N1CC2(CN(c3cccc(C(=O)N[C@@H]4CCCN(c5cc(-c6ccc(-n7cnnn7)c(F)c6)n6ncnc(N)c56)C4)n3)C2)C1` [Example 816, (R)-N-(1-(4-amino-7-(3-fluoro-4-(1H-tetrazol-1-yl)phenyl)pyrrolo[2,1-f][1,2,4]triazin-5-yl)piperidin-3-yl)-6-(6-isopropyl-2,6-diazaspiro[3.3]heptan-2-yl)picolinamide], it took 6 nM to reach half-maximal inhibition (IC50). `CC(C)N1CC2(CN(c3cccc(C(=O)N[C@@H]4CCCN(c5cc(-c6ccc(C#N)nc6)n6ncnc(N)c56)C4)n3)C2)C1` [Example 817, (R)-N-(1-(4-amino-7-(6-cyanopyridin-3-yl)pyrrolo[2,1-f][1,2,4]triazin-5-yl)piperidin-3-yl)-6-(6-isopropyl-2,6-diazaspiro[3.3]heptan-2-yl)picolinamide]: 14 nM corresponded to half-maximal inhibition (IC50).

Regarding `CC(C)N1CC2(CN(c3cccc(C(=O)N[C@@H]4CCCN(c5cc(-c6ccc(C#N)c(F)c6)n6ncnc(N)c56)C4)n3)C2)C1` [Example 818, (R)-N-(1-(4-amino-7-(4-cyano-3-fluorophenyl)pyrrolo[2,1-f][1,2,4]triazin-5-yl)piperidin-3-yl)-6-(6-isopropyl-2,6-diazaspiro[3.3]heptan-2-yl)picolinamide], the IC50 worked out at 3 nM. In the case of `COC(=O)N1CC=C(c2cc(N3CCC[C@@H](NC(=O)c4cccc(N5CC6(C5)CN(C(C)C)C6)n4)C3)c3c(N)ncnn23)C1` [Example 819, methyl (R)-3-(4-amino-5-(3-(6-(6-isopropyl-2,6-diazaspiro[3.3]heptan-2-yl)picolinamido)piperidin-1-yl)pyrrolo[2,1-f][1,2,4]triazin-7-yl)-2,5-dihydro-1H-pyrrole-1-carboxylate] it was 21 nM.

For the molecule `CNC(=O)c1ccc(-c2cc(N3CCC[C@@H](NC(=O)c4cccc(N5CC6(C5)CN(C(C)C)C6)n4)C3)c3c(N)ncnn23)cn1` [Example 820], the midpoint of inhibition, the IC50, lay at 21 nM. That is a double-digit nanomolar value.

With `CC(C)N1CC2(CN(c3cccc(C(=O)N[C@@H]4CCCN(c5cc(-c6ccc7cnn(C)c7c6)n6ncnc(N)c56)C4)n3)C2)C1` [Example 821, (R)-N-(1-(4-amino-7-(1-methyl-1H-indazol-6-yl)pyrrolo[2,1-f][1,2,4]triazin-5-yl)piperidin-3-yl)-6-(6-isopropyl-2,6-diazaspiro[3.3]heptan-2-yl)picolinamide], 69 nM corresponded to half-maximal inhibition (IC50). `Cc1cc(-c2cc(N3CCC[C@@H](NC(=O)c4cccc(N5CC6(C5)CN(C(C)C)C6)n4)C3)c3c(N)ncnn23)ccc1-n1cnnn1` [Example 822] gave an IC50 of 4 nM. In the case of `CC(C)N1CC2(CN(c3cccc(C(=O)N[C@@H]4CCCN(c5cc(-c6ccc(-n7cnnn7)c(F)c6F)n6ncnc(N)c56)C4)n3)C2)C1` [Example 823, (R)-N-(1-(4-amino-7-(2,3-difluoro-4-(1H-tetrazol-1-yl)phenyl)pyrrolo[2,1-f][1,2,4]triazin-5-yl)piperidin-3-yl)-6-(6-isopropyl-2,6-diazaspiro[3.3]heptan-2-yl)picolinamide] it was 18 nM; in that of `CC(C)N1CC2(CN(c3cccc(C(=O)N[C@@H]4CCCN(c5cc(-c6ccc(-n7cnnn7)c(CO)c6)n6ncnc(N)c56)C4)n3)C2)C1` [Example 824, (R)-N-(1-(4-amino-7-(3-(hydroxymethyl)-4-(1H-tetrazol-1-yl)phenyl)pyrrolo[2,1-f][1,2,4]triazin-5-yl)piperidin-3-yl)-6-(6-isopropyl-2,6-diazaspiro[3.3]beptan-2-yl)picolinamide], 10 nM.
